This note sets out measurements from article PMC8757604 (Journal of Enzyme Inhibition and Medicinal Chemistry, 2022).

Each structure is given as a SMILES string. “Also recorded” adds a separate entry of the source.

Data set [1] has as its target T1, α-Glucosidase from Saccharomyces cerevisiae (Saccharomyces cerevisiae, UniProt P53341). Nature of the data set: biochemical. The settings on record: for IC50: mean ± SD, enzyme 0.1 U/mL, p-NPG 0.25 mM, pH 6.8, 37 °C, read-out: α-Glucosidase inhibition (IC50). The class given is biochemical.
For data set [2], the target named is T2, α-amylase from hog pancreas (Sus scrofa, UniProt P00690).
T2 sequence (P00690 16-511): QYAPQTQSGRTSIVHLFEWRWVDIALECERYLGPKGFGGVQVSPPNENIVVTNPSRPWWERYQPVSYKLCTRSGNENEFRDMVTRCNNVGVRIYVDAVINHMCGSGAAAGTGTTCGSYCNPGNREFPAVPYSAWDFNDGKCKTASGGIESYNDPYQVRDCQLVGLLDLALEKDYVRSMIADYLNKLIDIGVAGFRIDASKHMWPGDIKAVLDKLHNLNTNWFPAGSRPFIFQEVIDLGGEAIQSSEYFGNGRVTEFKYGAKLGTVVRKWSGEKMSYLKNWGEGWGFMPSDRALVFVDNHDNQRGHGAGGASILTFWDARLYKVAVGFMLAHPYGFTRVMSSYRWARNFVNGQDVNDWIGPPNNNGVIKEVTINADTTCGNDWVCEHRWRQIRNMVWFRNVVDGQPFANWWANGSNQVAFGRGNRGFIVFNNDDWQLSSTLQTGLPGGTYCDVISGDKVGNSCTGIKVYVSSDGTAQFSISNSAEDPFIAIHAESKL
The data set is described as follows: α-Amylase inhibition assay (starch/DNS, absorbance 540 nm).

The target in data set [3] is T2, α-amylase from hog pancreas. The data set is described as follows: α-Amylase inhibition kinetics (V vs [E], Lineweaver–Burk plots). The class given is biochemical. Further details: α-amylase from hog pancreas (EC3.2.1.1); from tissue; host or cells: hog pancreas. The settings on record: 3f 0-15.0 μM. The source says:
Compound 3f with the strongest inhibitory activity against α-amylase was selected as the representative compound for the enzyme inhibitory kinetic analysis.
The enzyme inhibition kinetics analysis was investigated. The operation method was similar with the assay of α-glucosidase, except the concentrations of test compound, enzyme and substrate.

A further data set has as its system 3T3-L1 cells. The data set is described as follows: Cells cytotoxicity assay (MTT), 3T3-L1. The class given is cell-based. The settings on record: 24 h treatment, under concentration of 100 µM. The protocol:
(§1) 3T3–L1 or HepG2 cells were cultured in Dulbecco’s modified Eagle medium (DMEM) with 10% foetal bovine serum (FBS), 100 IU/mL penicillin and 100 IU/mL streptomycin at 37 °C under 5% CO2. 3T3-L1 cells (2 × 10^3) or HepG2 cells ([…]) were plated onto 96-well plate ([…]) and incubated for 24 h. After treated with compound (3a or 3f) for 24 h, the cells were added […] (0.5 mg/mL) and incubated for 4 h. Then […] was added to dissolve the blue insoluble MTT formazan. Finally, the absorbance was measured at 570 nm using a microplate reader. Each sample was performed in triplicate.

In the next data set the test system is HepG2 cells. The data set is described as follows: Cells cytotoxicity assay (MTT), HepG2. The class given is cell-based. The settings on record: 24 h treatment, under concentration of 100 µM. The protocol: as §1
The target of data set [4] is T1, α-Glucosidase from Saccharomyces cerevisiae. The data set is described as follows: α-Glucosidase inhibition kinetics (V vs [E], Lineweaver–Burk plots). Format: biochemical. The settings on record: 3a 0-0.5 μM. How it is done: To probe into the inhibition mechanism of OA derivatives (3a–3t) against α-glucosidase, compound 3a with the strongest inhibitory activity was selected as the representative compound for the enzyme inhibitory kinetic analysis. […] The inhibition kinetic behaviours were investigated using the Lineweaver–Burk plots.
The enzyme inhibition kinetics analysis was investigated using previously reported method with minor modifications[25]^,[26]. In brief, inhibitory effect was determined from the plots of absorbance change of OA derivatives at different concentrations with enzyme at different concentrations. The inhibition type was measured based on the Lineweaver–Burk plot of absorbance change of OA derivatives at different concentrations with p-NPG substrate at different concentrations.

By IC50 is commonly meant the concentration needed to halve the response being measured.

T1 sequence (P53341 whole entry): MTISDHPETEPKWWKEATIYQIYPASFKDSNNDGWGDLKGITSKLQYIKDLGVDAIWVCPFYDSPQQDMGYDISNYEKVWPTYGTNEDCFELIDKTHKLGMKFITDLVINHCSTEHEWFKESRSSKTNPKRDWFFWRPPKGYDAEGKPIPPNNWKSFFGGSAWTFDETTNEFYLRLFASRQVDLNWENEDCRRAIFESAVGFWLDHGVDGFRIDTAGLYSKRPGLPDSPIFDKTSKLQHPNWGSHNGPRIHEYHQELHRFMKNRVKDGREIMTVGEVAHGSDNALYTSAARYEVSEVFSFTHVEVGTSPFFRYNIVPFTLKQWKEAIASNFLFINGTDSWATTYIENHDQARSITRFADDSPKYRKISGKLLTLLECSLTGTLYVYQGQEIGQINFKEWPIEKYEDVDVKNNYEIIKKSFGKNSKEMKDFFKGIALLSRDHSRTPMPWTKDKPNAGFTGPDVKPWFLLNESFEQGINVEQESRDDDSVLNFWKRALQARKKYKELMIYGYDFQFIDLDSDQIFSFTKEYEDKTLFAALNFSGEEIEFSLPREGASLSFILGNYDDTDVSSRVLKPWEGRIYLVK

Regarding `CC1(C)CC[C@]2(C(=O)O)CC[C@]3(C)C(=CCC4[C@@]5(C)CC/C(=N\OC(=O)c6ccc(C(F)(F)F)cc6)C(C)(C)C5CC[C@]43C)C2C1` (stereo partly shown) [Compound 3q], the IC50 in data set [1] turned out to be 3.43 ± 0.17 µM; in data set [2], 33.6 ± 1.93 µM.
The matching figures for `CC1(C)CC[C@]2(C(=O)O)CC[C@]3(C)C(=CCC4[C@@]5(C)CC/C(=N\OC(=O)c6ccc(Cl)cc6)C(C)(C)C5CC[C@]43C)C2C1` (stereo partly shown) [Compound 3o]: 1.74 ± 0.14 µM and 26.3 ± 1.61 µM.
On to `CC1(C)CCC2(C(=O)O)CCC3(C)C(=CCC4C5(C)CCC(=NOC(=O)C=Cc6ccc(Br)cc6)C(C)(C)C5CCC43C)C2C1` (stereo not shown) [Compound 3f], for which the “Inhibition type towards α-amylase” value in data set [3] (Lineweaver–Burk plots) is listed as “mixed types; also recorded: mixed-type inhibitor”. Moreover, in data set [3] (plots of V vs α-amylase concentration), the “Reversibility of α-amylase inhibition” value is reported as “reversible”. For the same molecule, the “Cytotoxicity to 3T3-L1 cells” value in the data set on 3T3-L1 cells is given as “non-cytotoxic”. Besides, the IC50 amounted to 1.28 ± 0.03 µM in data set [1] and 3.8 ± 0.65 µM in data set [2]. In the data set with HepG2 cells, the “Cytotoxicity to HepG2 cells” value is “non-cytotoxic”. The “α-amylase inhibition, times better than OA” value in data set [2] (ratio of IC50 vs OA) was roughly 25 times. Besides, the “α-amylase inhibition, times better than acarbose” value in data set [2] (ratio of IC50 vs acarbose) was roughly 26 times.
With `CC1(C)CC[C@]2(C(=O)O)CC[C@]3(C)C(=CCC4[C@@]5(C)CC/C(=N\OC(=O)/C=C/c6ccc(F)cc6)C(C)(C)C5CC[C@]43C)C2C1` (stereo partly shown) [Compound 3d], the IC50 in data set [1] turned out to be 1.45 ± 0.12 µM; in data set [2], 17.5 ± 1.52 µM.
For `CC1(C)CCC2(C(=O)O)CCC3(C)C(=CCC4C5(C)CCC(=NOC(=O)C=Cc6ccccc6)C(C)(C)C5CCC43C)C2C1` (stereo not shown) [Compound 3a], the “Cytotoxicity to 3T3-L1 cells” value in the data set on 3T3-L1 cells is “non-cytotoxic”. The IC50 in data set [1] was determined as 0.35 ± 0.06 µM; in data set [2], 7.86 ± 1.24 µM. Also, the “α-glucosidase inhibition, times stronger than OA” value in data set [1] (ratio of IC50 vs OA) was roughly 11 times. Further, in data set [1] (ratio of IC50 vs acarbose), the “α-glucosidase inhibition, times stronger than acarbose” value is roughly 1900 times. The “Cytotoxicity to HepG2 cells” value in the data set with HepG2 cells is on record as “non-cytotoxic”. In addition, in data set [4] (Lineweaver–Burk plots), the “Inhibition type towards α-glucosidase” value is “mixed-type inhibitor; also recorded: mixed types”. Besides, the “Reversibility of α-glucosidase inhibition” value in data set [4] (plots of V vs [E]) was “reversible”.
With `CC1(C)CC[C@]2(C(=O)O)CC[C@]3(C)C(=CCC4[C@@]5(C)CC/C(=N\OC(=O)c6ccccc6)C(C)(C)C5CC[C@]43C)C2C1` (stereo partly shown) [Compound 3k], the IC50 in data set [1] was 0.67 ± 0.04 µM; in data set [2], 25.6 ± 1.66 µM.
The like results for `CC1(C)CC[C@]2(C(=O)O)CC[C@]3(C)C(=CCC4[C@@]5(C)CC/C(=N\OC(=O)/C=C/c6ccc([N+](=O)[O-])cc6)C(C)(C)C5CC[C@]43C)C2C1` (stereo partly shown) [Compound 3h] were, in that order, 1.36 ± 0.03 µM and 18.3 ± 1.92 µM.
The like results for `CC1(C)CC[C@]2(C(=O)O)CC[C@]3(C)C(=CCC4[C@@]5(C)CC/C(=N\OC(=O)/C=C/c6ccc(C(F)(F)F)cc6)C(C)(C)C5CC[C@]43C)C2C1` (stereo partly shown) [Compound 3g] were, in that order, 3.13 ± 0.13 µM and 12.6 ± 2.37 µM.
The matching figures for `CC1(C)CC[C@]2(C(=O)O)CC[C@]3(C)C(=CCC4[C@@]5(C)CC/C(=N\OC(=O)c6ccc(O)cc6)C(C)(C)C5CC[C@]43C)C2C1` (stereo partly shown) [Compound 3t]: 0.91 ± 0.04 µM and 152 ± 4.24 µM.
As to `COc1ccc(C(=O)O/N=C2\CC[C@@]3(C)C(CC[C@]4(C)C3CC=C3C5CC(C)(C)CC[C@]5(C(=O)O)CC[C@]34C)C2(C)C)cc1` (stereo partly shown) [Compound 3m], the IC50 in data set [1] is 1.1 ± 0.1 µM; in data set [2], 35.5 ± 2.41 µM.
The matching figures for `CC1(C)CC[C@]2(C(=O)O)CC[C@]3(C)C(=CCC4[C@@]5(C)CC/C(=N\OC(=O)/C=C/c6ccc7c(c6)OCO7)C(C)(C)C5CC[C@]43C)C2C1` (stereo partly shown) [Compound 3i]: 0.71 ± 0.02 µM and 17.9 ± 1.21 µM.
The matching figures for `COc1ccc(/C=C/C(=O)O/N=C2\CC[C@@]3(C)C(CC[C@]4(C)C3CC=C3C5CC(C)(C)CC[C@]5(C(=O)O)CC[C@]34C)C2(C)C)cc1` (stereo partly shown) [Compound 3c]: 0.89 ± 0.07 µM and 25.4 ± 1.17 µM.
The like results for `CC1(C)CC[C@]2(C(=O)O)CC[C@]3(C)C(=CCC4[C@@]5(C)CC/C(=N\OC(=O)c6ccc7c(c6)OCO7)C(C)(C)C5CC[C@]43C)C2C1` (stereo partly shown) [Compound 3s] were, in that order, 1.37 ± 0.06 µM and 18.7 ± 1.29 µM.
As to `Cc1ccc(C(=O)O/N=C2\CC[C@@]3(C)C(CC[C@]4(C)C3CC=C3C5CC(C)(C)CC[C@]5(C(=O)O)CC[C@]34C)C2(C)C)cc1` (stereo partly shown) [Compound 3l], the figures for the IC50 in data set [1] and in data set [2] were 0.99 ± 0.05 µM and 55.3 ± 2.39 µM, respectively.
The matching figures for `Cc1ccc(/C=C/C(=O)O/N=C2\CC[C@@]3(C)C(CC[C@]4(C)C3CC=C3C5CC(C)(C)CC[C@]5(C(=O)O)CC[C@]34C)C2(C)C)cc1` (stereo partly shown) [Compound 3b]: 0.68 ± 0.03 µM and 15.3 ± 1.41 µM.
The like results for `CC1(C)CC[C@]2(C(=O)O)CC[C@]3(C)C(=CCC4[C@@]5(C)CC/C(=N\OC(=O)c6ccc([N+](=O)[O-])cc6)C(C)(C)C5CC[C@]43C)C2C1` (stereo partly shown) [Compound 3r] were, in that order, 1.41 ± 0.12 µM and 70.7 ± 1.25 µM.
The like results for `CC1(C)CC[C@]2(C(=O)O)CC[C@]3(C)C(=CCC4[C@@]5(C)CC/C(=N\OC(=O)c6ccc(F)cc6)C(C)(C)C5CC[C@]43C)C2C1` (stereo partly shown) [Compound 3n] were, in that order, 1.96 ± 0.25 µM and 70.2 ± 2.53 µM.
As for `CC1(C)CC[C@]2(C(=O)O)CC[C@]3(C)C(=CCC4[C@@]5(C)CC/C(=N\OC(=O)c6ccc(Br)cc6)C(C)(C)C5CC[C@]43C)C2C1` (stereo partly shown) [Compound 3p], the half-inhibitory concentration (IC50) was determined as 1.81 ± 0.05 µM in data set [1] and 15.9 ± 1.75 µM in data set [2].
The like results for `CC1(C)CC[C@]2(C(=O)O)CC[C@]3(C)C(=CCC4[C@@]5(C)CC/C(=N\OC(=O)/C=C/c6ccc(Cl)cc6)C(C)(C)C5CC[C@]43C)C2C1` (stereo partly shown) [Compound 3e] were, in that order, 0.95 ± 0.06 µM and 5.64 ± 1.29 µM.
As to `CC1(C)CC[C@]2(C(=O)O)CC[C@]3(C)C(=CCC4[C@@]5(C)CC/C(=N\OC(=O)/C=C/c6ccc(O)cc6)C(C)(C)C5CC[C@]43C)C2C1` (stereo partly shown) [Compound 3j], the IC50 in data set [1] was found to be 0.82 ± 0.09 µM; in data set [2], 70.8 ± 2.31 µM.
